# Test results reported in patent publication US7351731B2, “Azole derivatives and methods for making the same” (Board of Governors for Higher Education, State of Rhode …, priority 2005, dated 2008).
# How the values were obtained:
# [1] = test system: C. albicans ATCC 14053; test: MIC microdilution susceptibility testing, C. albicans in SDB; type: cell-based, Candida albicans; settings: for MIC: Candida albicans, ATCC14053, pH 5.6, SDB medium pH 5.6, 35-37° C.; for MIC / MIC C. albicans ATCC 14053, SDB: 24-48 h, average of three experiments; for fold more active than FLC against C. albicans in SDB: MIC ratio to FLC; for MIC C. albicans ATCC 14053, SDB: SDB medium pH 5.6, 35-37° C.; for fold less antifungal activity against C. albicans in SDB than in RPMI: SDB versus RPMI
# Procedure: (§1) Microorganisnis. […] Stock cultures were kept on Sabouraud dextrose agar (SDA; Becton-Dickinson and Co., Sparks, Md.). Subcultures were prepared on SDA at 35-37° C. Suspension cultures were prepared by inoculation of single colonies in 7 ml of normal saline solution.
# (§2) Test compounds were dissolved in DMSO (0.56 mg/ml) and stored at 0° C. Working dilutions were made in RPMI or SDB medium. […] The final maximum concentration of DMSO in the assays was 5% (v/v).
# (§3) Microdilutions for control experiments with C. albicans, A. niger, and C. neoformans were the modified method of National Committee for Clinical Laboratory Standards (NCCLS) method as described by Galgiani and by the more recent NCCLS M27-A microdilution methods as described previously. Galgiani, J. N. Antimicrob. Agents Chemother. […] Reference method for broth dilution antifungal susceptibility testing for yeasts. Approval standard. […] 9; C. arballeira, N. M., et al. Arch. Pharm.-Pharm. […] Dilutions were prepared in 0.1 ml of RPMI or SDB; the inocula were either 10^4 C. albicans or C. neoformans cells or A. niger spores. The tubes were incubated for 24-48 h at 36±1° C., and turbidity was read visually.
# [2] = test system: C. albicans ATCC 14053; test: Interaction studies (FIC index) against C. albicans in SDB; type: cell-based, Candida albicans; settings: for FIC index: mixed with FLC, C. albicans ATCC 14053, SDB
# Text: . Fractional Inhibitory Concentration (FIC) index [FICindex=FICA+FICB] calculation was used to determine synergism between different components of the synthesized compounds while administered separately, where FICA or FICB equals to MIC of compounds A or B in combination divided by MIC of drug A or B alone. If the FIC index is ≦0.5, the combination is synergistic. […]
# [3] = test system: C. albicans ATCC 14053; test: MIC microdilution susceptibility testing, C. albicans in RPMI; type: cell-based, Candida albicans; settings: RPMI medium pH 6.9, 35-37° C., 24-48 h, average of three experiments; for MIC: Candida albicans, ATCC14053, read-out: MIC C. albicans ATCC 14053, RPMI
# Procedure: as §1, §2, §3
# [4] = test system: C. neoformans ATCC 66031; test: MIC microdilution susceptibility testing, C. neoformans in SDB; type: cell-based, Cryptococcus neoformans; settings: SDB medium, 35-37° C., 24-48 h, average of three experiments; for MIC: Cryptococcus neoformans, ATCC66031
# Procedure: as §1, §2, §3
# [5] = test system: A. niger ATCC 16404; test: MIC microdilution susceptibility testing, A. niger in SDB; type: cell-based, Aspergillus niger; settings: for fold more potent than FLC against A. niger: MIC ratio to FLC, SDB
# Procedure: as §1, §2, §3
# [6] = SDB medium, 35-37° C., 24-48 h, average of three experiments
compound,measurement,setting,value
"CCCCCCC(Br)C(=O)O (stereo not drawn) [2-Bromooctanoic acid, reference compound]",MIC,[1],865 µg/mL
same,FIC index,[2],0.30
same,fold less antifungal inhibition than 1g used alone,"[2]; mixture with FLC, C. albicans, SDB",approximately 2 fold
same,MIC,[3],865 µg/mL
same,MIC,[4],433 µg/mL
"O=C(O)CCCCCCCCCCBr [11-Bromoundecanoic acid, reference compound]",MIC,[1],185 µg/mL
same,MIC,"[5]; Aspergillus niger, ATCC16404, SDB medium, 35-37° C., 24-48 h, average of three experiments",93 µg/mL
same,FIC index,[2],0.52
same,MIC,[3],371 µg/mL
same,MIC,[4],23 µg/mL
"CCCCCCC(Br)C(=O)OC(Cn1cncn1)(Cn1cncn1)c1ccc(F)cc1F (stereo not drawn) [Compound 1g, O-2-Bromooctanoylfluconazole]",fold more active than FLC against C. albicans in SDB,[1],at least 40 fold
same,"MIC C. albicans ATCC 14053, SDB",[1],111 µg/mL
same,fold less antifungal activity against C. albicans in SDB than in RPMI,[1],8 fold
same,fold more potent than FLC against A. niger,[5],at least 5.2 fold
same,"MIC A. niger ATCC 16404, SDB",[5]; [6],111 µg/mL
same,FIC index,[2],1.05
same,"MIC C. neoformans ATCC 66031, SDB",[4],14 µg/mL
"O=C(CCCCCCCCCCBr)OC(Cn1cncn1)(Cn1cncn1)c1ccc(F)cc1F [Compound 1j, O-11-Bromoundecanoylfluconazole]",fold more active than FLC against C. albicans in SDB,[1],≥ 22 fold
same,"MIC C. albicans ATCC 14053, SDB",[1],198 µg/mL
same,fold less antifungal activity against C. albicans in SDB than in RPMI,[1],17 fold
same,fold more potent than FLC against A. niger,[5],≥ 1.5 fold
same,"MIC A. niger ATCC 16404, SDB",[5]; [6],395 µg/mL
same,FIC index,[2],1.04
same,"MIC C. albicans ATCC 14053, RPMI",[3],12 µg/mL
